In article PMC5675618, “Identification and validation of FGFR2 peptide for detection of early Barrett's neoplasia” (Oncotarget, 2017):

Experiments:
[1] = system: QhTERT cells that express FGFR2b; assay: Confocal fluorescence microscopy, binding to QhTERT cells that express FGFR2b; assay type: cell-based, human
Text: (§1) All human esophageal specimens were obtained with written, informed patient consent per approval and guidelines of the University of Michigan Institutional Review Board (IRB). Human non-dysplastic Barrett's esophagus (BE) cells immortalized with hTert (QhTERT) were obtained from the American Type Culture Collection (ATCC) and cultured in keratinocyte-serum free medium containing bovine pituitary extract and human recombinant EGF (ThermoFisher #17005042). QhTERT cells with stable expression of FGFR2b or FGFR2c were provided (DGB). We cultured these cells with keratinocyte-serum free medium containing bovine pituitary extract and human recombinant EGF (ThermoFisher #17005042) and added 1 μg/mL of puromycin-dihydrochloride (Invitrogen #A11138-03). All cells were cultured at 37°C in 5% CO2, and were passaged using 0.25% EDTA containing trypsin (Mediatech Inc). A hemocytometer was used to determine cell number. Peptide synthesis reagents were obtained from either Anaspec or AAPPTEC with the highest grade available (>99% purity) and used without further purification. Solvents and other chemical reagents were obtained from Sigma-Aldrich, unless otherwise stated.
~10^3 QhTERT/wt, QhTERT/FGFR2b, and QhTERT/FGFR2c cells were grown on cover glass to ~80% confluence. The cells were washed with PBS 1X and incubated with 1 μM of either peptide for 10 min at RT. The cells were then washed 3X in PBS, fixed with 4% paraformaldehyde (PFA) for 5 min, washed 1X with PBS, and then mounted on glass slides with ProLong Gold reagent containing DAPI (Invitrogen). Confocal fluorescence images were collected with Cy5.5 and DAPI filters (Leica Inverted SP5X 2-Photon FLIM confocal microscopes) using a 63X oil-immersion objective. Fluorescence intensities from 3 cells in each of 3 independent images were quantified using custom Matlab (Mathworks) software.

[2] = system: QhTERT cells that express FGFR2c; assay: Apparent dissociation constant by flow cytometry; assay type: binding, human; details: 0 to 200 nM in PBS in 25 nM increments, 4°C, 1 hour; mean fluorescence intensity by flow cytometry; non-linear fit R^2 = 0.96; representative of 3 independent experiments
Method: We measured the apparent dissociation constant kd for peptide binding to cells to assess binding affinity. The Cy5.5-labeled peptide was serially diluted in PBS at concentrations ranging from 0 to 200 nM in 25 nM increments. QhTERT/FGFR2c cells (~10^5) were incubated with peptide at 4°C for 1 hour, washed with cold PBS, and the mean fluorescence intensities were measured using flow cytometry. The equilibrium dissociation constant kd=1/ka was calculated by performing a least squares fit of the data to the non-linear equation I=(I0+Imaxka[X])/([…]). I0 and Imax are the initial and maximum fluorescence intensities, corresponding to no peptide and at saturation, respectively, and [X] represents the concentration of the […] peptide. Prism 5.0 software (GraphPad Inc) was used to calculate kd.

[3] = system: sections of human esophageal squamous cell cancer (SCC); assay: Confocal microscopy of staining of human esophageal squamous cell cancer (SCC) ex vivo
Text: We observed good co-localization of peptide and antibody binding on merged images, Supplementary Figure 5C. Representative histology (H&E) for SCC is shown, Supplementary Figure 5D. […] Representative histology (H&E) for normal stomach is shown, Supplementary Figure 5H.

QhTERT wild-type cells = assay: Confocal fluorescence microscopy, binding to wild-type QhTERT cells; assay type: cell-based, human; details: 1 μM peptide, 10 min at RT, 63X
Text: as §1, with “Peptide synthesis reagents were obtained from either Anaspec or AAPPTEC with the highest grade available (>99% purity) and used without further purification. Solvents and other chemical reagents were obtained from Sigma-Aldrich, unless otherwise stated.” left out
~10^3 QhTERT/wt, QhTERT/FGFR2b, and QhTERT/FGFR2c cells were grown on cover glass to ~80% confluence. […] Confocal fluorescence images were collected with Cy5.5 and DAPI filters (Leica Inverted SP5X 2-Photon FLIM confocal microscopes) using a 63X oil-immersion objective. Fluorescence intensities from 3 cells in each of 3 independent images were quantified using custom Matlab (Mathworks) software.

[4] = Fluorescence spectra of Cy5.5-labeled peptides; assay type: physicochemical; details: 10 μM in PBS, excitation λex = 671 nm
Text: We synthesized the 12 amino acid sequence SRRPASFRTARE (black) and attached the fluorophore Cy5.5 (red) via a GGGSK linker (blue) on the C-terminus, hereafter SRR^*-Cy5.5, Figure 1A. Cy5.5 was chosen for photostability and high quantum yield in the near-infrared (NIR) spectrum. We used a linker to prevent steric hindrance of the peptide by the dye. We then used a structural model (1EV2), [24] […] This domain is the same in either isoform FGFR2IIIb or FGFR2IIIc. We also used this model to develop a scrambled sequence SPSRERTFRARA for a control, Figure 1C. This peptide was also labeled with Cy5.5 via a GGGSK linker, hereafter SPS^*-Cy5.5. For SPS^*-Cy5.5, we calculated Et = −277.37. […] We purified SRR^*-Cy5.5 and […] to >97% on HPLC, and measured an experimental mass-to-charge (m/z) ratio on mass spectrometry of 2385.31 for both peptides that agreed with the expected value, Supplementary Figure 3.
Figure 1 Peptide specific for FGFR2 Chemical structure is shown for 12 amino acid (aa) peptide sequence (A) SRRPASFRTARE (SRR^*) found to be specific for FGFR2, and (B) scrambled peptide SPSRERTFRARA (SPS^*) used for control. A Cy5.5 fluorophore (red) is attached via a GGGSK linker (blue) to prevent steric hindrance.

[5] = system: QhTERT cells that express FGFR2c; assay: Apparent association time constant by flow cytometry; assay type: binding, human; details: 5 μM, RT, 0 to 30 min
Method: We measured the apparent association time constant of the peptide to QhTERT/FGFR2c cells to assess binding onset. Cells were grown to ~80% confluence in 10 cm dishes, and detached with PBS-based cell dissociation buffer (Invitrogen). Cells (~10^5 were incubated with 5 μM SRR-Cy5.5 at RT for various time intervals ranging from 0 to 30 min. The cells were centrifuged, and washed with cold PBS. Flow cytometry analysis was performed as described above, and the median fluorescence intensity (y) were measured on flow cytometry at different time points (t) using Flowjo software. The rate constant k was calculated by fitting the data to a first order kinetics model, y(t) = Imax[1-exp^(-kt)], where Imax = maximum value using Prism 5.0 software (GraphPad Inc).

Sequence: SRRPASFRTARE [SRR^*-Cy5.5]
- cell surface fluorescence signal / binding ([1]; 1 μM peptide, 10 min at RT, confocal, 63X): strong signal
- mean fluorescence intensity versus control SPS^*-Cy5.5 ([1]; compared with wild-type, log-transformed, ANOVA, 3 random cells on each of 3 slides): significantly greater mean fluorescence intensity
- Kd [2]: 68 nM
- mean fluorescence intensity, SCC versus normal, SRR*-Cy5.5 ([3]; P=5×10-21, paired two-sided t-test, 3 boxes of 30×30 μm2): significantly greater mean fluorescence intensity
- fluorescence intensity / binding, esophageal SCC ([3]; SCC sections ex vivo, n = 35 patients): strong fluorescence intensity
- staining, normal human esophagus ([3]; normal esophagus, comparison): minimal staining
- cell surface fluorescence signal / binding (QhTERT wild-type cells): minimal signal
- peak emission λem [4]: 710 nm
- apparent association time constant k ([5]; median fluorescence intensity by flow cytometry, first order kinetics, representative of 3 independent experiments): 0.16 min⁻¹
- time scale for onset of binding ([5]; from k): ~ 6.2 min
